Type in all cases: biochemical
One test concerns the target JAK2 (Homo sapiens, UniProt O60674). The test can be described thus: JAK 2 enzymatic inhibitory activity IC50 assay (Caliper conversion rate). As to conditions: Km ATP, 28° C., 1 hour. The protocol: (§1) Biological effect: intracytoplasmic JAK 1,2,3 enzymatic inhibitory activity IC50 assay
(§2) JAK1 buffer solution: 25 mM HEPES, pH 7.5, 0.01% Brij-35, 0.01 M Triton. JAK2,3 buffer solution: 50 mM HEPES, pH 7.5, 0.0015% Brij-35.
(§3) 2. Compound was formulated in 100% DMSO in a concentration gradient, deposited to a 384-well plate with a final concentration of 2% of DMSO.
(§4) 3. JAK2,3 enzymes were diluted to having an optimum concentration with the following buffer: 50 mM HEPES, pH 7.5, 0.0015% Brij-35, 2 mM DTT. JAK1 enzyme was diluted to having an optimum concentration with the following buffer: 25 mM HEPES, pH 7.5, 0.01% Brij-35, 2 mM DTT, 0.01M Triton. Then they were transferred to a 384-well plate and incubated with the compound for a certain time.
(§5) 4. JAK2,3 substrate was diluted to having an optimum concentration with the following buffer: 50 mM HEPES, pH 7.5, 0.0015% Brij-35, 10 mM MgCl2, Km adenosine triphosphate. JAK1 substrate was diluted to having an optimum concentration with the following buffer: 25 mM HEPES, pH 7.5, 0.01% Brij-35, 10 mM MgCl2, 0.01 M Triton. Km adenosine triphosphate was added into 384-well plates to initiate reactions, and the reaction were carried out at 28° C. for 1 hour.
(§6) 5. Read the conversion rate by Caliper Reader, and the inhibition rate are calculated according to the average of two tests.

The target of another test is JAK1 (Homo sapiens, UniProt P23458). Nature of the test: JAK 1 enzymatic inhibitory activity IC50 assay (Caliper conversion rate). The following applies: Km ATP, 28° C., 1 hour. The protocol:
as §1, §2, §3, §4, §5, §6

The next test concerns the target T1, JAK3 (Homo sapiens, UniProt P52333).
T1 sequence (P52333 1-1124): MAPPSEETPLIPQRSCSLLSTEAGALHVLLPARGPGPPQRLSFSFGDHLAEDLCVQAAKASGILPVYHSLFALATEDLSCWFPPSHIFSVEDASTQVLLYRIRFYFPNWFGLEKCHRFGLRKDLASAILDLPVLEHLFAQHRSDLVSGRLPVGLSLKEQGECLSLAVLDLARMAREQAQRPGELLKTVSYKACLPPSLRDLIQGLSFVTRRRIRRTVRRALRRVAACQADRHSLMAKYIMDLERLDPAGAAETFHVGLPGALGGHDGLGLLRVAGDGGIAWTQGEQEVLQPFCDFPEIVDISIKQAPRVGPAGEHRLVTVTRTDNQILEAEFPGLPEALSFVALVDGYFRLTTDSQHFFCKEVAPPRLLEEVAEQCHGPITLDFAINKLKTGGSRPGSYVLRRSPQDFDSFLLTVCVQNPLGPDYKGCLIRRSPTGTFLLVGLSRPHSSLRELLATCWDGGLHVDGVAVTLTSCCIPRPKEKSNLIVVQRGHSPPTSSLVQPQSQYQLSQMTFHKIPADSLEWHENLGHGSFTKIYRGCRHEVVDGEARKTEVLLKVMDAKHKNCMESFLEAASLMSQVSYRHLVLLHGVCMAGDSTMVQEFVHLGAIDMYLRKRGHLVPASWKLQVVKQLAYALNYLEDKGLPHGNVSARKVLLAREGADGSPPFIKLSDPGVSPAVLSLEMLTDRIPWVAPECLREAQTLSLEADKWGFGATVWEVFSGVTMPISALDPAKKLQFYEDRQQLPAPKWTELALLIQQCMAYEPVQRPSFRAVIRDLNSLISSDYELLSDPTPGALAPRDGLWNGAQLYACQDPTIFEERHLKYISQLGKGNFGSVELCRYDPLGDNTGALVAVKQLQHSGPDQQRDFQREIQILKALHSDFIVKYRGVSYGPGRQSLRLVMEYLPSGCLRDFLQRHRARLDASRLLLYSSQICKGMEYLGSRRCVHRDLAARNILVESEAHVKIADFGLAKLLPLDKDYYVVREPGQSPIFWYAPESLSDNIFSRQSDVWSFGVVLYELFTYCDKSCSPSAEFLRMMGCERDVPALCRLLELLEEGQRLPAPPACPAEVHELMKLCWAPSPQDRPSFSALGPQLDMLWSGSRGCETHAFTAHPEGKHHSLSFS
The test can be described thus: JAK 3 enzymatic inhibitory activity IC50 assay (Caliper conversion rate). As to conditions: Km ATP, 28° C., 1 hour; read-out: JAK 3 enzymatic inhibitory activity IC50. The protocol: as §1, §2, §3
3. JAK2,3 enzymes were diluted to having an optimum concentration with the following buffer: 50 mM HEPES, pH 7.5, 0.0015% Brij-35, 2 mM DTT. JAK1 enzyme was diluted to having an optimum concentration with the following buffer: 25 mM HEPES, pH 7.5, 0.01% Brij-35, 2 mM DTT, 0.01M Triton. Then they were transferred to a 384-well plate and incubated with the compound for a certain time. […]
as §6

Molecules are shown by their SMILES.

JAK2, sequence (O60674 whole entry, species assumed): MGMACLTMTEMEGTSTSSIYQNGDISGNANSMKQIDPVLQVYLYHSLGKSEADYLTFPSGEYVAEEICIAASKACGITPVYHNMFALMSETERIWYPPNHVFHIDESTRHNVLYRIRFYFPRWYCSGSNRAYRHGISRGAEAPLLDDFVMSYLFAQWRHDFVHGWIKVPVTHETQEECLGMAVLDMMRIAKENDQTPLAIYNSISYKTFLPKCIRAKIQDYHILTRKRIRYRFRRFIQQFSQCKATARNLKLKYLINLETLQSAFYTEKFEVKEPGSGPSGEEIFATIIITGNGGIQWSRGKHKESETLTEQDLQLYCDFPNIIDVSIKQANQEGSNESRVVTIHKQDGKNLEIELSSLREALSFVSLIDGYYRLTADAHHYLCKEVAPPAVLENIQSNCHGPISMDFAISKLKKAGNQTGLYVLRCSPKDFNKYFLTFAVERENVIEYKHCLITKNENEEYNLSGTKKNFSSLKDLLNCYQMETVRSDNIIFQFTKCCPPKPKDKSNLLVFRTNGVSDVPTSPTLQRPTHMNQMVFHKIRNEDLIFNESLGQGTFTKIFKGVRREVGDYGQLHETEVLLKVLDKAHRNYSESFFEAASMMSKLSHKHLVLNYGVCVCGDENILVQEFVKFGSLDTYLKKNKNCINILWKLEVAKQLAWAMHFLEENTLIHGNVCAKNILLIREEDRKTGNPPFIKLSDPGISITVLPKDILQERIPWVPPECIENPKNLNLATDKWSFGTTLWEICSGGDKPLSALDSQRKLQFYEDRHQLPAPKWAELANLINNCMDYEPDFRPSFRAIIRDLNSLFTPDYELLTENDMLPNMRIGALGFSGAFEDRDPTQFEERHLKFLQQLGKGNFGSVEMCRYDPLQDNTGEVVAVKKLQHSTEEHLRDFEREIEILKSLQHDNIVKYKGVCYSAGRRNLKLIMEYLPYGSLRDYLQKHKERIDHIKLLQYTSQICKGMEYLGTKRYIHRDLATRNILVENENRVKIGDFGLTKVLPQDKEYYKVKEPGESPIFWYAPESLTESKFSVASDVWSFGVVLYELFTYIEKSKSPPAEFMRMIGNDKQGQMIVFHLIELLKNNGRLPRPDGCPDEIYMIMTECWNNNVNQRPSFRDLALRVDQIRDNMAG
JAK1, sequence (P23458 whole entry, species assumed): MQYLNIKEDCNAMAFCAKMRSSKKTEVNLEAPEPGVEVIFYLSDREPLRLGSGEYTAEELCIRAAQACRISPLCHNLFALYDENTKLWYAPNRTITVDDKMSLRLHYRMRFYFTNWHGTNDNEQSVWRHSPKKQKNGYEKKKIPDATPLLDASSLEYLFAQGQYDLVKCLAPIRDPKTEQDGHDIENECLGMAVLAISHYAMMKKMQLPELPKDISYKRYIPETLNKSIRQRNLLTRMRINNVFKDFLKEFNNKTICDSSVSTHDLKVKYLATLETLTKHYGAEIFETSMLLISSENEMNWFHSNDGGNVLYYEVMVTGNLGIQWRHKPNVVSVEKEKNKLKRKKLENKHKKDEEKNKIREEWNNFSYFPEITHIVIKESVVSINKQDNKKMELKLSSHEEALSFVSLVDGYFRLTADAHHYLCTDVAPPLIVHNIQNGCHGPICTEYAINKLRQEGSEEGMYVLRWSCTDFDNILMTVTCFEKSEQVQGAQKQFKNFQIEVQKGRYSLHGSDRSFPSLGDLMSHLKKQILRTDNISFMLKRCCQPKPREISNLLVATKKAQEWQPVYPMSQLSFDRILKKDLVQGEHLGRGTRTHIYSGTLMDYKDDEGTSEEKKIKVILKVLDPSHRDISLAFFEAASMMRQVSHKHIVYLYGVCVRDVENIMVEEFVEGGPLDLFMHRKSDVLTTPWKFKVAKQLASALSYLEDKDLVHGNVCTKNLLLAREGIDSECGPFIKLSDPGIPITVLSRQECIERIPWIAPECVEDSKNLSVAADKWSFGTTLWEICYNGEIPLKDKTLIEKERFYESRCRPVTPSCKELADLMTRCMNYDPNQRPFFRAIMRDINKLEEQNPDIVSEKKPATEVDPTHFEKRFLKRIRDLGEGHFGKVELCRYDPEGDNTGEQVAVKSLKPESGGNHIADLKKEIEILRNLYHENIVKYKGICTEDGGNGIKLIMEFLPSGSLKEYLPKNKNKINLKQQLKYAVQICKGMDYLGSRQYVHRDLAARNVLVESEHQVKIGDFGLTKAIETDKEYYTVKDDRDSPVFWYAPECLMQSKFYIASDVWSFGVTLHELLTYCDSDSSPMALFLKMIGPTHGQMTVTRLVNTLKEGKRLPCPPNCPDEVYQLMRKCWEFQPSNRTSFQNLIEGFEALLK

On to `CCS(=O)(=O)N1CC(CC#N)(n2cc(-c3nc(Nc4cnn(C5CN(C)C5)c4)nc4ccsc34)cn2)C1` [Compound T-54, 2-(1-(Ethylsulfonyl)-3-(4-(2-((1-(1-methylazetidin-3-yl)-1H-pyrazol-4-yl)amino)thieno[3,2-d]pyrimidin-4-yl)-1H-pyrazol-1-yl)azetidin-3-yl)acetonitrile], for which the results for the IC50 on JAK2, at JAK1 and at JAK3 were under 50 nM, 50 to 500 nM and 50 to 500 nM, respectively.

In the case of `CCS(=O)(=O)N1CC(CC#N)(n2cc(-c3nc(Nc4ccnnc4)nc4ccsc34)cn2)C1` [Compound T-47, 2-(1-(Ethylsulfonyl)-3-(4-(2-(pyridazin-4-ylamino)thieno[3,2-d]pyrimidin-4-yl)-1H-pyrazol-1-yl)azetidin-3-yl)acetonitrile], the IC50 is 500 to 1000 nM on JAK2, 500 to 1000 nM against JAK1 and over 1000 nM on JAK3.

As to `Cn1cc(Nc2nc(-c3cnn(C4(CC#N)COC4)c3)c3ccsc3n2)cn1` [Compound T-42, 2-(3-(4-(2-((1-Methyl-1H-pyrazol-4-yl)amino)thieno[2,3-d]pyrimidin-4-yl)-1H-pyrazol-1-yl)oxetan-3-yl)acetonitrile], the results for the IC50 against JAK2, against JAK1 and on JAK3 were 50 to 500 nM, 500 to 1000 nM and over 1000 nM, respectively.

As for `CCS(=O)(=O)N1CC(CC#N)(n2cc(-c3nc(Nc4ccccc4)nc4cc(C)sc34)cn2)C1` [Compound T-23, 2-(1-(Ethylsulfonyl)-3-(4-(6-methyl-2-(phenylamino)thieno[3,2-d]pyrimidin-4-yl)-1H-pyrazol-1-yl)azetidin-3-yl)acetonitrile], the IC50 on JAK2, against JAK1 and on JAK3 was over 1000 nM each time.

Turning to `CCS(=O)(=O)N1CC(CC#N)(n2cc(-c3nc(Nc4cn[nH]c4)nc4ccsc34)cn2)C1` [Compound T-31, 2-(3-(4-(2-((1H-Pyrazol-4-yl)amino)thieno[3,2-d]pyrimidin-4-yl)-1H-pyrazol-1-yl)-1-(ethylsulfonyl)azetidin-3-yl)acetonitrile], the IC50 against JAK2 was under 50 nM; against JAK1, under 50 nM; on JAK3, 50 to 500 nM.

Consider `CCS(=O)(=O)N1CC(CC#N)(n2cc(-c3nc(Nc4ccc(-n5cnnn5)cc4)nc4ccsc34)cn2)C1` [Compound T-59, 2-(3-(4-(2-((4-(1H-Tetrazol-1-yl)phenyl)amino)thieno[3,2-d]pyrimidin-4-yl)-1H-pyrazol-1-yl)-1-(ethylsulfonyl)azetidin-3-yl)acetonitrile], for which the figures for the IC50 on JAK2, against JAK1 and at JAK3 were under 50 nM, under 50 nM and 50 to 500 nM, respectively.

Consider `CCS(=O)(=O)N1CC(CC#N)(n2cc(-c3nc(Nc4ccc(N5CCOCC5)nc4)nc4ccsc34)cn2)C1` [Compound T-62, 2-(1-(Ethylsulfonyl)-3-(4-(2-((6-morpholinopyridin-3-yl)amino)thieno[3,2-d]pyrimidin-4-yl)-1H-pyrazol-1-yl)azetidin-3-yl)acetonitrile], for which the concentration for half-maximal inhibition (IC50) against JAK2 is under 50 nM; against JAK1, 50 to 500 nM; at JAK3, 50 to 500 nM.

For `CCS(=O)(=O)N1CC(CC#N)(n2cc(-c3nc(Nc4cnn(C5CCN(C)CC5)c4)nc4ccsc34)cn2)C1` [Compound T-64, 2-(1-(Ethylsulfonyl)-3-(4-(2-((1-(1-methylpiperidin-4-yl)-1H-pyrazol-4-yl)amino)thieno[3,2-d]pyrimidin-4-yl)-1H-pyrazol-1-yl)azetidin-3-yl)acetonitrile], the IC50 against JAK2, at JAK1 and at JAK3 was under 50 nM in each case.

For the compound `CC(C)(CO)n1cc(Nc2nc(-c3cnn(C4(CC#N)CN(S(C)(=O)=O)C4)c3)c3sccc3n2)cn1` [Compound T-79, 2-(3-(4-(2-((1-(1-Hydroxy-2-methylpropan-2-yl)-1H-pyrazol-4-yl)amino)thieno[3,2-d]pyrimidin-4-yl)-1H-pyrazol-1-yl)-1-(methylsulfonyl)azetidin-3-yl)acetonitrile], the IC50 against JAK2, against JAK1 and at JAK3 was under 50 nM throughout.

Consider `C[C@H](CO)n1cc(Nc2nc(-c3cnn(C4(CC#N)COC4)c3)c3sccc3n2)cn1` [Compound T-82, (R)-2-(3-(4-(2-((1-(1-Hydroxypropan-2-yl)-1H-pyrazol-4-yl)amino)thieno[3,2-d]pyrimidin-4-yl)-1H-pyrazol-1-yl)oxetan-3-yl)acetonitrile], for which the IC50 is under 50 nM on JAK2, 50 to 500 nM on JAK1 and 50 to 500 nM at JAK3.

For the compound `N#CCNC(=O)c1ccc(-c2nc(Nc3ccccc3)nc3ccsc23)cc1` [Compound T-16, N-(Cyanomethyl)-4-(2-(phenylamino)thieno[3,2-d]pyrimidin-4-yl)benzamide], the IC50 on JAK2, on JAK1 and at JAK3 was over 1000 nM each time.

Take `CCS(=O)(=O)N1CC(CC#N)(n2cc(-c3nc(NC(=O)C4CC4)nc4ccsc34)cn2)C1` [Compound T-29, N-(4-(1-(3-(Cyanomethyl)-1-(ethylsulfonyl)azetidin-3-yl)-1H-pyrazol-4-yl)thieno[3,2-d]pyrimidin-2-yl)cyclopropanecarboxamide]: the IC50 was under 50 nM against JAK2, 50 to 500 nM on JAK1 and over 1000 nM on JAK3.

Consider `CCS(=O)(=O)N1CC(CC#N)(n2cc(-c3nc(Nc4cnn(CCOC)c4)nc4ccsc34)cn2)C1` [Compound T-70, 2-(1-(Ethylsulfonyl)-3-(4-(2-((1-(2-methoxyethyl)-1H-pyrazol-4-yl)amino)thieno[3,2-d]pyrimidin-4-yl)-1H-pyrazol-1-yl)azetidin-3-yl)acetonitrile], for which the IC50 against JAK2, against JAK1 and at JAK3 was under 50 nM in each case.

Turning to `CCS(=O)(=O)N1CC(CC#N)(n2cc(-c3nc(Nc4cnn(CC(F)(F)F)c4)nc4ccsc34)cn2)C1` [Compound T-69, 2-(1-(Ethylsulfonyl)-3-(4-(2-((1-(2,2,2-trifluoroethyl)-1H-pyrazol-4-yl)amino)thieno[3,2-d]pyrimidin-4-yl)-1H-pyrazol-1-yl)azetidin-3-yl)acetonitrile], the IC50 against JAK2 is under 50 nM; against JAK1, under 50 nM; at JAK3 it was 50 to 500 nM.

For the compound `Cn1cc(Nc2nc(-c3cnn(C4(CC#N)CC4)c3)c3sccc3n2)cn1` [Compound T-75, 2-(1-(4-(2-((1-Methyl-1H-pyrazol-4-yl)amino)thieno[3,2-d]pyrimidin-4-yl)-1H-pyrazol-1-yl)cyclopropyl)acetonitrile], the IC50 was under 50 nM on JAK2, 50 to 500 nM at JAK1 and 50 to 500 nM at JAK3.

On to `CCS(=O)(=O)N1CC(CC#N)(n2cc(-c3nc(Nc4ccncc4)nc4ccsc34)cn2)C1` [Compound T-21, 2-(1-(Ethylsulfonyl)-3-(4-(2-(pyridin-4-ylamino)thieno[3,2-d]pyrimidin-4-yl)-1H-pyrazol-1-yl)azetidin-3-yl)acetonitrile], for which the IC50 is under 50 nM against JAK2, 50 to 500 nM on JAK1 and 50 to 500 nM at JAK3.

As usually defined, the IC50 is the concentration needed to halve the response being measured.

(Values after patent publication US9745320B2, “Five-and-six-membered heterocyclic compound, and preparation method, pharmaceutical composition and use thereof” (SHANGHAI CHEMEXPLORER CO., LTD., priority 2013, dated 2017).)
